Results from ChEMBL document CHEMBL4840317, “Saccharochelins A-H, Cytotoxic Amphiphilic Siderophores from the Rare Marine Actinomycete Saccharothrix sp. D09” (J Nat Prod, 2021).
Activity calls are given as the source filed them. The calls are words filed in the database; no cut-off is given here.

What was measured:
MCF7 = experiment: Cytotoxicity against human MCF7 cells assessed as reduction in cell viability by MTT assay; type: functional, cell-based
Staphylococcus aureus = experiment: Antibacterial activity against Staphylococcus aureus ATCC 29213 assessed as inhibition of bacterial growth incubated for 18 hrs by Kirby-Bauer disk diffusion method; type: functional
A549 = experiment: Cytotoxicity against human A549 cells assessed as reduction in cell viability by MTT assay; type: functional, cell-based
Pseudomonas aeruginosa = experiment: Antibacterial activity against Pseudomonas aeruginosa ATCC 27853 assessed as inhibition of bacterial growth incubated for 18 hrs by Kirby-Bauer disk diffusion method; type: functional
HCT-116 = experiment: Cytotoxicity against human HCT-116 cells assessed as reduction in cell viability by MTT assay; type: functional, cell-based
Escherichia coli = experiment: Antibacterial activity against Escherichia coli ATCC 35218 assessed as inhibition of bacterial growth incubated for 18 hrs by Kirby-Bauer disk diffusion method; type: functional
HepG2 = experiment: Cytotoxicity against human HepG2 cells assessed as reduction in cell viability by MTT assay; type: functional, cell-based
[1] = molecular target: Angiotensin-converting enzyme 2 (Homo sapiens) (UniProt Q9BYF1); experiment: Inhibition of ACE2 (unknown origin) upto 100 ug/ml incubated for 15 mins followed by substrate addition by fluorescence based analysis; conditions: dose microg/ml <=100, time 15.0 min
Sequence of Angiotensin-converting enzyme 2 (Homo sapiens) (Q9BYF1 18-805 limits assumed): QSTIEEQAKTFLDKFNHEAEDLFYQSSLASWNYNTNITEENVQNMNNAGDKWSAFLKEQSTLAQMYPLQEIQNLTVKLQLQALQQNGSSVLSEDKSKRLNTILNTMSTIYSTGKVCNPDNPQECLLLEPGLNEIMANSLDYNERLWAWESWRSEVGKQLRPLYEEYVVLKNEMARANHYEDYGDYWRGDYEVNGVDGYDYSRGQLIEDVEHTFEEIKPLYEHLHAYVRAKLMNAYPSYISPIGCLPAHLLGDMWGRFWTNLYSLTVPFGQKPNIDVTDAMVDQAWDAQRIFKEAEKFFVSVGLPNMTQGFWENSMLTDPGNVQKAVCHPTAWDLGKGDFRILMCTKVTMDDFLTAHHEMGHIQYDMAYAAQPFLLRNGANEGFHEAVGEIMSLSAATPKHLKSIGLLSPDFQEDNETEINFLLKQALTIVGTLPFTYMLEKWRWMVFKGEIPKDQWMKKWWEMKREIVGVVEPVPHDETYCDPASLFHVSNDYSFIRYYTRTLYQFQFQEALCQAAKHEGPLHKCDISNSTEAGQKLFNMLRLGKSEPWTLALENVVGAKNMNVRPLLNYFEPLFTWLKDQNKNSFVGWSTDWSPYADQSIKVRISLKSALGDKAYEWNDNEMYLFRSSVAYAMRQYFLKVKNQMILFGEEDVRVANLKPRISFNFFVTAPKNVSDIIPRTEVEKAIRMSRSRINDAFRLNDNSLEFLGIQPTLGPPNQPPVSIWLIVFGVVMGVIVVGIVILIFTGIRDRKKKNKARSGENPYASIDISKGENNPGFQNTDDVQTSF

Bacillus subtilis = experiment: Antibacterial activity against Bacillus subtilis ATCC 6633 assessed as inhibition of bacterial growth incubated for 18 hrs by Kirby-Bauer disk diffusion method; type: functional
[2] = Binding affinity to Fe3+ assessed as formation of Fe3+-compound complex at 5 to 640 uM in presence of FeCl3 incubated for 3 hrs by Chrome Azurol S assay; conditions: dose 5-640 µM
[3] = Binding affinity to Fe3+ assessed as formation of Fe3+-compound complex coordinate ratio of 1:1 measured under neutral pH by UV-visible spectrophotometric titration analysis

SMILES | IC50 (MCF7) | MIC (Staphylococcus aureus) | IC50 (A549) | MIC (Pseudomonas aeruginosa) | IC50 (HCT-116) | MIC (Escherichia coli) | IC50 (HepG2) | inhibition [1] | MIC (Bacillus subtilis) | Activity [2] | Activity [3]
CCCCCCCCCCCCCC(=O)N[C@@H](CCCN(O)C=O)C(=O)N[C@@H](CO)C(=O)N(O)CCC[C@@H]1NC(=O)[C@H](CCCN(O)C=O)NC1=O | > 20 µM | > 100 µM | > 20 µM | > 100 µM | > 20 µM | > 100 µM | > 20 µM | inactive | > 100 µM | – | –
CCCCCCCCCCCC(=O)N[C@@H](CCCN(O)C=O)C(=O)N[C@@H](CO)C(=O)N(O)CCC[C@@H]1NC(=O)[C@H](CCCN(O)C=O)NC1=O | 17 µM | > 100 µM | 11 µM | > 100 µM | 11 µM | > 100 µM | > 20 µM | inactive | > 100 µM | Active | –
CC(C)CCCCCCCCCC(=O)N[C@@H](CCCN(O)C=O)C(=O)N[C@@H](CO)C(=O)N(O)CCC[C@@H]1NC(=O)[C@H](CCCN(O)C=O)NC1=O | > 20 µM | > 100 µM | > 20 µM | > 100 µM | > 20 µM | > 100 µM | 7.7 µM | inactive | > 100 µM | Active | Active
CCCCCCCCCCCCCCC(=O)N[C@@H](CCCN(O)C=O)C(=O)N[C@@H](CO)C(=O)N(O)CCC[C@@H]1NC(=O)[C@H](CCCN(O)C=O)NC1=O | 5.9 µM | > 100 µM | 3.3 µM | > 100 µM | 4.8 µM | > 100 µM | 4.3 µM | inactive | > 100 µM | – | –
CC(C)CCCCCCCCCCC(=O)N[C@@H](CCCN(O)C=O)C(=O)N[C@@H](CO)C(=O)N(O)CCC[C@@H]1NC(=O)[C@H](CCCN(O)C=O)NC1=O | > 20 µM | > 100 µM | 14 µM | > 100 µM | > 20 µM | > 100 µM | > 20 µM | inactive | > 100 µM | Active | –
CC(C)CCCCCCCCC(=O)N[C@@H](CCCN(O)C=O)C(=O)N[C@@H](CO)C(=O)N(O)CCC[C@@H]1NC(=O)[C@H](CCCN(O)C=O)NC1=O | > 20 µM | > 100 µM | 13 µM | > 100 µM | 9.7 µM | > 100 µM | > 20 µM | inactive | > 100 µM | – | –
COc1cccc2c1C(=O)c1c(O)c3c(c(O)c1C2=O)C[C@@](O)(C(=O)CO)C[C@@H]3O[C@H]1C[C@H](N)[C@H](O)[C@H](C)O1 [DOXORUBICIN] | – | – | 0.9 µM | – | 1.1 µM | – | 1.3 µM | – | – | – | –
CCCCCCCCCCCCC(=O)N[C@@H](CCCN(O)C=O)C(=O)N[C@@H](CO)C(=O)N(O)CCC[C@@H]1NC(=O)[C@H](CCCN(O)C=O)NC1=O | > 20 µM | > 100 µM | 3.4 µM | > 100 µM | 10 µM | > 100 µM | 10 µM | inactive | > 100 µM | Active | –
CC(C)CCCCCCCCCCCC(=O)N[C@@H](CCCN(O)C=O)C(=O)N[C@@H](CO)C(=O)N(O)CCC[C@@H]1NC(=O)[C@H](CCCN(O)C=O)NC1=O | > 20 µM | > 100 µM | 8.1 µM | > 100 µM | > 20 µM | > 100 µM | 2.3 µM | inactive | > 100 µM | Active | –
CC(=O)N(O)CCCCCNC(=O)CCC(=O)N(O)CCCCCNC(=O)CCC(=O)N(O)CCCCCN | – | – | – | – | – | – | – | – | – | Active | –
